Measured values: patent US4861865A, “Novel antithrombin peptide” (Washington University, priority 1989, dated 1989)

Target: T1, human thrombin (Homo sapiens, UniProt P00734)
T1 construct: human thrombin, bovine thrombin, and Ancrod; purchased Sigma Chemical
Assay: Fibrinogen clotting assay (fibrometer) with thrombin
Assay type: biochemical
Conditions: final concentration of 10 U/ml
Experimental: Fibrinogen clotting times (S=seconds) in the presence of varying concentrations (μM) of the peptide were determined with a fibrometer following addition of thrombin. Each concentration of peptide was assayed in triplicate. Error bars indicate standard deviations.
All reagents were equilibrated to 37° C. before mixing.

Substance: Heparin
- effect on clotting time: no effect on clotting time
